The target in assay [1] is T1, PTP1B (Homo sapiens, UniProt P18031).
T1 construct: purchased MedChemExpress LLC
T1 sequence (P18031 1-435): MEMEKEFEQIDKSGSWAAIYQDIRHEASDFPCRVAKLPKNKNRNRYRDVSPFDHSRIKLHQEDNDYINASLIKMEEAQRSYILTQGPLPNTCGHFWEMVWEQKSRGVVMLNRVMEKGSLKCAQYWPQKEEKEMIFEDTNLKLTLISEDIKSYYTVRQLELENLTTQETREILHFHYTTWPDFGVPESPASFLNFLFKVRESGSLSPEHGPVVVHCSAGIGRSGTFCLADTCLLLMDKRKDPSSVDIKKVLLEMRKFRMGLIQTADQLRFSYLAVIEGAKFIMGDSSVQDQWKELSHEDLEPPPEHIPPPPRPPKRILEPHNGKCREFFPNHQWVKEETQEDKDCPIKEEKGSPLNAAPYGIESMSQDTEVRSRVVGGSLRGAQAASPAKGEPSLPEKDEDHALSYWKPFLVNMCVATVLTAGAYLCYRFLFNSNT
The assay can be described thus: PTP1B inhibitory assay (pNPP hydrolysis). It counts as biochemical. The conditions noted are these: for inhibition at 100 µM: percent inhibition at a concentration of 100 μM; for IC50: mean ± SD of three independent experiments. On the procedure: The inhibitory activity against PTP1B was assessed via the p-nitrophenyl phosphate (pNPP) hydrolysis assay. The reaction buffer consisted of 50 mM citrate buffer (pH 6.0) supplemented with 0.1 M NaCl, 2 mM EDTA, and 1 mM DTT. Recombinant PTP1B enzyme (MedChemExpress LLC, Monmouth Junction, NJ, USA) was used at a concentration of 5 μg/mL, with 10 mM pNPP serving as the substrate. The enzymatic reaction was terminated by the addition of 1M NaOH.

Assay [2] concerns the target T2, α-glucosidase (Saccharomyces cerevisiae, UniProt P53341).
T2 construct: purchased Sigma-Aldrich Inc
The assay can be described thus: α-Glucosidase inhibitory assay (pNPG hydrolysis). As to conditions: for inhibition at 100 µM: read-out: α-Glucosidase Inhibition (%). Format: biochemical. On the procedure:
In brief, 140 μL of phosphate buffer (0.2 M, pH 6.8) was added to the 96-well microplate wells, followed by the addition of 10 μL α-glucosidase solution (0.5 U/mL, Sigma-Aldrich Inc., Saint Louis, MO, USA) and 2 μL of the test compound. The control wells contained 2 μL of DMSO in place of the test sample, while the enzyme solution was replaced by an additional 10 μL of phosphate buffer in the background wells. After preincubation at 37 °C for 10 min, 48 μL of 2 mM p-nitrophenyl-α-D-glucopyranoside (pNPG) was introduced into each well. The reaction mixtures were incubated for 30 min before being terminated by adding 50 μL of 0.1 M Na2CO3 solution. Absorbance was measured at 405 nm using a microplate reader. […] All assays were performed in triplicate and repeated three times independently.

In assay [3] the test system is α-glucosidase. The conditions noted are these: cited from earlier work; for α-Glucosidase inhibition (in words): affinity-directed fractionation-mass spectrometry.
Assay [4] addresses T2, α-glucosidase. The assay can be described thus: Enzyme reversibility and kinetics analysis, α-glucosidase. It counts as biochemical. How it is done:
(§1) Reversibility was assessed by plotting the enzyme reaction velocity (v) against varying enzyme concentrations in the presence of different inhibitor concentrations. Lineweaver–Burk plots (1/v vs. 1/[S]) were constructed by measuring reaction velocities at multiple substrate concentrations with varying amounts of inhibitors. From these plots, inhibition type, as well as Michaelis–Menten constants Km and Vmax, were determined. Additionally, slopes and Y-intercepts of these reciprocal plots were also plotted against inhibitor concentrations to further characterize the inhibition constants Ki and Kis, respectively.

In assay [5] the target is T1, PTP1B. Kind of assay: Enzyme reversibility and kinetics analysis, PTP1B. It counts as biochemical. How it is done:
as §1

The mark [6] stands for this setting: read-out: α-Glucosidase IC50, mean ± SD of three independent experiments.
The mark [7] stands for this setting: secondary plot of Y-intercept from Lineweaver–Burk data.
The mark [8] stands for this setting: velocity vs enzyme concentration at different inhibitor levels.

Where two headings read alike, the source gives them in different places. Some results are limits rather than exact numbers.

T2 sequence (P53341 whole entry): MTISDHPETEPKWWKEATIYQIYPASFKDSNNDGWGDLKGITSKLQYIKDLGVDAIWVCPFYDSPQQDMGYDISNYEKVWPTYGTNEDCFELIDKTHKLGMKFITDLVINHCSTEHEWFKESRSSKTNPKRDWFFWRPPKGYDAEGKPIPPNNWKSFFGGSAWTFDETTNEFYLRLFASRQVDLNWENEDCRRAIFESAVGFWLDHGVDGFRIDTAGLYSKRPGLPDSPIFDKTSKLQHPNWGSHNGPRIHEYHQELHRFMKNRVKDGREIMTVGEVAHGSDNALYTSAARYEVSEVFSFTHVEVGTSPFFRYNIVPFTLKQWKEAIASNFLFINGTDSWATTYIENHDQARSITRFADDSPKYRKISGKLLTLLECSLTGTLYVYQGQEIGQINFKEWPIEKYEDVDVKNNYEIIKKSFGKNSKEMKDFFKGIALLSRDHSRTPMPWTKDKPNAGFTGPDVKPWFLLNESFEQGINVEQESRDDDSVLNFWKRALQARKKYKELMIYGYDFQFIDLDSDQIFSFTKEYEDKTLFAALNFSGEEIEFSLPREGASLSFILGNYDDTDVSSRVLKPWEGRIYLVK

As usually defined, the inhibition is how much of the control response was suppressed. Take `C[C@H]1[C@H](C)CC[C@]2(C(=O)O)CC[C@]3(C)C(=CC[C@@H]4[C@@]5(C)CC[C@H](O)C(C)(C)[C@@H]5CC[C@]43C)[C@H]12` [Ursolic acid, ursolic acid, reference compound]: the inhibition at 100 µM at PTP1B [1] stood at 90.4 ± 5.23%.
As usually defined, the IC50 is the concentration at which inhibition is half-maximal. Regarding `CCCC[C@@H](CCCCCCCCCC(=O)OC)O[C@@H]1O[C@H](C)[C@H](O)[C@H](O)[C@H]1O[C@@H]1O[C@H](CO)[C@@H](O)[C@H](O[C@@H]2O[C@H](CO)[C@@H](O)[C@H](O)[C@H]2O)[C@H]1O[C@@H]1O[C@@H](C)[C@H](OC(=O)[C@H](C)[C@@H](C)O)[C@@H](O)[C@H]1O` [Compound 6, Cusponin VI], the IC50 is more than 100 µM against PTP1B [1] and 71.4 ± 3.23 µM at α-glucosidase [2] (setting [6]). Besides, the values for the inhibition at 100 µM against PTP1B [1] and on α-glucosidase [2] were 29.9 ± 4.5% and 60.5 ± 5.42%, respectively.
On to `CCCC[C@@H](CCCCCCCCCC(=O)OC)O[C@@H]1O[C@H](C)[C@H](O)[C@H](O)[C@H]1O[C@@H]1O[C@H](CO)[C@@H](O)[C@H](O[C@@H]2O[C@H](CO)[C@@H](O)[C@H](O)[C@H]2O)[C@H]1O[C@@H]1O[C@@H](C)[C@H](O)[C@@H](O)[C@H]1O` [Compound 7, Cusponin VII], for which the IC50 against PTP1B [1] and at α-glucosidase [2] (setting [6]) was more than 100 µM in each case. For the same molecule, the inhibition at 100 µM against PTP1B [1] was found to be 15.9 ± 2.92%; on α-glucosidase [2], 49.4 ± 1.71%.
Consider `CCCC[C@@H](CCCCCCCCCC(=O)OC)O[C@@H]1O[C@H](C)[C@H](O)[C@H](O)[C@H]1O[C@@H]1O[C@@H](C)[C@H](O[C@@H]2O[C@@H](C)[C@H](O[C@@H]3O[C@@H](C)[C@H](O)[C@@H](O)[C@H]3O)[C@@H](O[C@@H]3O[C@H](CO)[C@@H](O)[C@H](O)[C@H]3O)[C@H]2O)[C@@H](O)[C@H]1O` [Compound 4, Cusponin IV], for which the IC50 is more than 100 µM against PTP1B [1] and 55.5 ± 6.89 µM on α-glucosidase [2] (setting [6]). The inhibition at 100 µM against PTP1B [1] came out at 15 ± 2.45%; at α-glucosidase [2], 66.5 ± 3.65%.
Consider `CCC[C@H]1CCCCCCCCCC(=O)O[C@H]2[C@H](O[C@H]3[C@H](O)[C@@H](C)O[C@@H](O[C@H]4[C@H](O1)O[C@H](C)[C@@H](O)[C@@H]4O)[C@@H]3O[C@@H]1O[C@@H](C)[C@H](OC(C)=O)[C@@H](O)[C@H]1O)O[C@H](C)[C@@H](O)[C@@H]2OC(=O)[C@H](C)[C@@H](C)O` [albinoside VII], for which, in the assay on α-glucosidase [3], the “α-Glucosidase inhibition (in words)” value is “potent α-glucosidase inhibitors”.
At PTP1B [1], `CCCCC[C@@H](CCCCCCCCCC(=O)OC)O[C@@H]1O[C@H](CO)[C@@H](O)[C@H](O)[C@H]1O[C@@H]1O[C@@H](C)[C@H](O[C@@H]2O[C@@H](C)[C@H](O[C@@H]3O[C@@H](C)[C@H](O)[C@@H](O[C@@H]4O[C@H](CO)[C@@H](O)[C@H](O)[C@H]4O)[C@H]3O)[C@@H](O)[C@H]2O)[C@@H](O)[C@H]1O` [Compound 2, Cusponin II] showed a half-inhibitory concentration (IC50) of more than 100 µM and an inhibition at 100 µM of 3.26 ± 0.16%. Further, at α-glucosidase [2], the IC50 was 8.02 ± 2.9 µM and the inhibition at 100 µM was found to be 83 ± 0.84%. Moreover, at α-glucosidase [4] (Lineweaver–Burk plots), the “Inhibition type, α-glucosidase” value was “uncompetitive”. For the same molecule, at α-glucosidase [4] (at 16 μM compound 2 (0.115 at 0 μM)), the “Vmax of α-glucosidase in presence of inhibitor” value amounted to 0.021. Besides, on α-glucosidase [4] (setting [7]), the “Inhibition constant Kis (enzyme–substrate complex), α-glucosidase” value was 3.02 µM. The “Reversibility of α-glucosidase inhibition” value on α-glucosidase [4] (setting [8]) is “reversible”.
The Ki is a dissociation constant, usually derived from enzyme kinetics or from competition with a known ligand. In the case of `CCCC[C@@H](CCCCCCCCCC(=O)OC)O[C@@H]1O[C@H](CO)[C@@H](O)[C@H](O)[C@H]1O[C@@H]1O[C@@H](C)[C@H](O[C@@H]2O[C@@H](C)[C@H](O[C@@H]3O[C@@H](C)[C@H](O)[C@@H](O)[C@H]3O)[C@@H](O[C@@H]3O[C@H](CO)[C@@H](O)[C@H](O)[C@H]3O)[C@H]2O)[C@@H](O)[C@H]1O` [Compound 3, Cusponin III], the IC50 at PTP1B [1] came out at 14.2 ± 1.29 µM; on α-glucosidase [2] (setting [6]), 64.9 ± 2.97 µM. Besides, the inhibition at 100 µM against PTP1B [1] was 89.2 ± 2.55%; at α-glucosidase [2], 67.1 ± 1.18%. For the same molecule, the “Inhibition type, PTP1B” value at PTP1B [5] (Lineweaver–Burk plot) is “mixed-type”. Further, the “Vmax of PTP1B in presence of inhibitor” value on PTP1B [5] (at 25 μM compound 3 (0.104 at 0 μM)) is 0.075. Besides, the “Inhibition constant Kis (enzyme–substrate complex), PTP1B” value at PTP1B [5] (setting [7]) came out at 64.24 µM. Besides, the Ki on PTP1B [5] (secondary plot of slope from Lineweaver–Burk data, read-out: Inhibition constant Ki (free enzyme), PTP1B) amounted to 24.8 µM. Also, the “Reversibility of PTP1B inhibition” value at PTP1B [5] (setting [8]) is recorded as “reversible”.
For `CCCCC[C@@H](CCCCCCCCCC(=O)OC)O[C@@H]1O[C@H](CO)[C@@H](O)[C@H](O)[C@H]1O[C@@H]1O[C@@H](C)[C@H](O[C@@H]2O[C@@H](C)[C@H](O[C@@H]3O[C@@H](C)[C@H](O)[C@@H](O)[C@H]3O)[C@@H](O[C@@H]3O[C@H](CO)[C@@H](O)[C@H](O)[C@H]3O)[C@H]2O)[C@@H](O)[C@H]1O` [Compound 8, operculinic acid B methyl ester], the IC50 against PTP1B [1] was more than 100 µM; on α-glucosidase [2] (setting [6]) it was 65.1 ± 9.41 µM. In addition, the inhibition at 100 µM on PTP1B [1] was found to be 7.78 ± 1.98%; on α-glucosidase [2], 64.6 ± 3.12%.
For the molecule operculinic acid A, the IC50 on α-glucosidase [3] (from Ipomoea biflora) is 78.3 µM.
As to `CCC[C@H]1CCCCCCCCCC(=O)O[C@H]2[C@H](OC[C@H]3O[C@@H](O[C@H]4[C@H](O1)O[C@H](C)[C@@H](O)[C@@H]4O)[C@H](O[C@@H]1O[C@@H](C)[C@H](OC(C)=O)[C@@H](O)[C@H]1O)[C@@H](O)[C@@H]3O)O[C@H](C)[C@@H](O)[C@@H]2OC(=O)[C@H](C)[C@@H](C)O` [albinoside VI], the “α-Glucosidase inhibition (in words)” value with α-glucosidase [3] is on record as “potent α-glucosidase inhibitors”.
With `CCCC[C@@H](CCCCCCCCCC(=O)OC)O[C@@H]1O[C@H](CO)[C@@H](O)[C@H](O)[C@H]1O[C@@H]1O[C@@H](C)[C@H](O[C@@H]2O[C@@H](C)[C@H](O[C@@H]3O[C@@H](C)[C@H](O)[C@@H](O[C@@H]4O[C@H](CO)[C@@H](O)[C@H](O)[C@H]4O)[C@H]3O)[C@@H](O)[C@H]2O)[C@@H](O)[C@H]1O` [Compound 1, Cusponin I], the IC50 is more than 100 µM on PTP1B [1] and 38.2 ± 3.36 µM at α-glucosidase [2] (setting [6]). The inhibition at 100 µM is 5.41 ± 0.67% against PTP1B [1] and 68.7 ± 4.11% on α-glucosidase [2].
The like results for `CCCC[C@@H](CCCCCCCCCC(=O)OC)O[C@@H]1O[C@H](C)[C@H](O)[C@H](O)[C@H]1O[C@@H]1O[C@H](CO)[C@@H](O)[C@H](O[C@@H]2O[C@H](CO)[C@@H](O)[C@H](O)[C@H]2O)[C@H]1O[C@@H]1O[C@@H](C)[C@H](OC(=O)[C@H](C)[C@@H](C)OC(=O)[C@H](C)[C@@H](C)O)[C@@H](O)[C@H]1O` [Compound 5, Cusponin V] were, in that order, 62.3 ± 8.61 µM, more than 100 µM, 52.7 ± 4.6% and 51.8 ± 1.77%.

(Values after article PMC12562854, “Resin Glycosides with α-Glucosidase and Protein Tyrosine Phosphatase 1B Inhibitory Activities from the Seeds of Cuscuta japonica” (Biomolecules, 2025).)
